# Tested on: interferon-stimulated genes (ISGs)
# Assay: Microarray analysis of iCell Hepatocytes treated with the compound of example 1
# Format: cell-based, Human
# From the text: iCell Hepatocytes treated with the compound of example 1 results in the up and down-regulation of a host of genes; including a kinetic effect on interferon-stimulated gene (ISGs) expression. See FIGS. 15-I and 15-II, 16-I and 16-II and 18 and Table 1.
structure (smiles),measurement,setting,value
"O=C(NCc1cccc(F)c1)c1cccc2nc(-c3c(NC[C@@H](O)c4ccccc4)cc[nH]c3=O)[nH]c12 [Example 1, 2-[4-((S)-2-hydroxy-2-phenyl-ethylamino)-2-oxo-1,2-dihydro-pyridin-3-yl]-3H-benzoimidazole-4-carboxylic acid 3-fluoro-benzylamide]",IFITM2 Raw Est Fold Change,24 HOUR,−1.90
same,IFITM3 Raw Est Fold Change,24 HOUR,−1.36
same,IFNGR1 Raw Est Fold Change,24 HOUR,−2.46
same,IGHM Raw Est Fold Change,24 HOUR,−2.00
same,IL6 Raw Est Fold Change,24 HOUR,−4.57
same,IL6ST Raw Est Fold Change,24 HOUR,−1.25
same,IL8 Raw Est Fold Change,24 HOUR,−4.32
same,IL28RA Raw Est Fold Change,24 HOUR,1.28
same,IMPA2 Raw Est Fold Change,24 HOUR,−1.80
same,IQGAP1 Raw Est Fold Change,24 HOUR,−1.70
same,IRF3 Raw Est Fold Change,24 HOUR,1.26
same,IRF7 Raw Est Fold Change,24 HOUR,−3.86
same,ISG20 Raw Est Fold Change,24 HOUR,−1.70
same,ISGF3G Raw Est Fold Change,24 HOUR,−1.37
same,ITGA2 Raw Est Fold Change,24 HOUR,−1.94
same,JAK1 Raw Est Fold Change,24 HOUR,−1.17
same,JAK2 Raw Est Fold Change,24 HOUR,−1.29
same,JUNB Raw Est Fold Change,24 HOUR,−4.94
same,KDELR2 Raw Est Fold Change,24 HOUR,−1.19
same,KIAA0040 Raw Est Fold Change,24 HOUR,−5.04
same,KPNB1 Raw Est Fold Change,24 HOUR,−1.12
same,LEPR Raw Est Fold Change,24 HOUR,2.89
same,LIFR Raw Est Fold Change,24 HOUR,1.33
same,LRG1 Raw Est Fold Change,24 HOUR,−2.10
same,LRP4 Raw Est Fold Change,24 HOUR,−2.17
same,MAFB Raw Est Fold Change,24 HOUR,2.60
same,MAFF Raw Est Fold Change,24 HOUR,−2.09
same,MAP3K8 Raw Est Fold Change,24 HOUR,−3.81
same,MCL1 Raw Est Fold Change,24 HOUR,−1.16
same,MLKL Raw Est Fold Change,24 HOUR,−1.78
same,MSR1 Raw Est Fold Change,24 HOUR,−2.06
same,MT1M Raw Est Fold Change,24 HOUR,−3.35
same,MT1X Raw Est Fold Change,24 HOUR,−6.73
same,MTHFD2L Raw Est Fold Change,24 HOUR,−2.20
same,MTMR1 Raw Est Fold Change,24 HOUR,−1.14
same,MYD88 Raw Est Fold Change,24 HOUR,1.15
same,MYT1 Raw Est Fold Change,24 HOUR,−3.59
same,N4BP1 Raw Est Fold Change,24 HOUR,−1.40
same,NFE2 Raw Est Fold Change,24 HOUR,−8.28
same,NFKBIA Raw Est Fold Change,24 HOUR,−1.38
same,NPAS2 Raw Est Fold Change,24 HOUR,−2.77
same,NUB1 Raw Est Fold Change,24 HOUR,−1.47
same,PADI2 Raw Est Fold Change,24 HOUR,2.66
same,PCGF2 Raw Est Fold Change,24 HOUR,1.44
same,PCMT1 Raw Est Fold Change,24 HOUR,−1.10
same,PCTK2 Raw Est Fold Change,24 HOUR,−1.85
same,PCTK3 Raw Est Fold Change,24 HOUR,1.59
same,PDGFA Raw Est Fold Change,24 HOUR,1.23
same,PDGFRL Raw Est Fold Change,24 HOUR,−1.86
same,PDK1 Raw Est Fold Change,24 HOUR,−1.48
same,PEX26 Raw Est Fold Change,24 HOUR,1.29
same,PIM3 Raw Est Fold Change,24 HOUR,−2.56
same,PLOD2 Raw Est Fold Change,24 HOUR,−1.22
same,PLSCR1 Raw Est Fold Change,24 HOUR,−3.34
same,PNRC1 Raw Est Fold Change,24 HOUR,−2.42
same,PPIC Raw Est Fold Change,24 HOUR,−1.23
same,PPP1R3D Raw Est Fold Change,24 HOUR,−1.49
same,PSCD1 Raw Est Fold Change,24 HOUR,−1.21
same,PSMA2 Raw Est Fold Change,24 HOUR,1.27
same,PSMB9 Raw Est Fold Change,24 HOUR,−1.86
same,PTEN Raw Est Fold Change,24 HOUR,1.23
same,RAB27A Raw Est Fold Change,24 HOUR,−2.33
same,RANBP1 Raw Est Fold Change,24 HOUR,1.13
same,RBCK1 Raw Est Fold Change,24 HOUR,1.34
same,RBL1 Raw Est Fold Change,24 HOUR,−4.92
same,RBMS1 Raw Est Fold Change,24 HOUR,−1.38
same,RHOH Raw Est Fold Change,24 HOUR,5.26
same,RXRA Raw Est Fold Change,24 HOUR,1.46
same,SAT Raw Est Fold Change,24 HOUR,−1.57
same,SDC2 Raw Est Fold Change,24 HOUR,1.96
same,SERPINB9 Raw Est Fold Change,24 HOUR,−1.86
same,SFPQ Raw Est Fold Change,24 HOUR,−1.39
same,SFTPC Raw Est Fold Change,24 HOUR,−1.66
same,SLC15A2 Raw Est Fold Change,24 HOUR,−1.58
same,SLC25A28 Raw Est Fold Change,24 HOUR,−1.54
same,SLC25A30 Raw Est Fold Change,24 HOUR,1.53
same,SMAD3 Raw Est Fold Change,24 HOUR,−1.19
same,SOAT2 Raw Est Fold Change,24 HOUR,4.03
same,SOCS1 Raw Est Fold Change,24 HOUR,−9.88
same,SOCS3 Raw Est Fold Change,24 HOUR,−3.51
same,SPTLC2 Raw Est Fold Change,24 HOUR,−10.08
same,SQLE Raw Est Fold Change,24 HOUR,−1.98
same,SQRDL Raw Est Fold Change,24 HOUR,−1.45
same,SSBP3 Raw Est Fold Change,24 HOUR,1.35
same,STAT1 Raw Est Fold Change,24 HOUR,−2.14
same,STEAP4 Raw Est Fold Change,24 HOUR,−65.16
same,TAP1 Raw Est Fold Change,24 HOUR,−1.60
same,TAP2 Raw Est Fold Change,24 HOUR,−1.54
same,TBX3 Raw Est Fold Change,24 HOUR,1.42
same,TCF7L2 Raw Est Fold Change,24 HOUR,−1.29
same,TEAD4 Raw Est Fold Change,24 HOUR,−2.33
same,TFPI Raw Est Fold Change,24 HOUR,−1.38
same,THBD Raw Est Fold Change,24 HOUR,−9.02
same,THBS1 Raw Est Fold Change,24 HOUR,−1.44
same,TMEM2 Raw Est Fold Change,24 HOUR,−1.35
same,TMEM49 Raw Est Fold Change,24 HOUR,−2.07
same,TMEM67 Raw Est Fold Change,24 HOUR,−4.34
same,TNFSF13B Raw Est Fold Change,24 HOUR,1.36
same,TRIM14 Raw Est Fold Change,24 HOUR,1.36
same,TRIM26 Raw Est Fold Change,24 HOUR,1.56
same,TXNIP Raw Est Fold Change,24 HOUR,−1.37
same,UBE2S Raw Est Fold Change,24 HOUR,−1.40
same,USP12 Raw Est Fold Change,24 HOUR,−1.96
same,USP25 Raw Est Fold Change,24 HOUR,−1.22
same,VAT1 Raw Est Fold Change,24 HOUR,1.21
same,YWHAE Raw Est Fold Change,24 HOUR,−1.11
same,ZFYVE26 Raw Est Fold Change,24 HOUR,1.31
same,ZNF24 Raw Est Fold Change,24 HOUR,−1.16
same,ZNF295 Raw Est Fold Change,24 HOUR,−1.84
same,ABHD5 Raw Est Fold Change,DAY 7,−2.05
same,ACSL1 Raw Est Fold Change,DAY 7,1.78
same,ADM Raw Est Fold Change,DAY 7,−3.85
same,AGXT Raw Est Fold Change,DAY 7,2.54
same,AHR Raw Est Fold Change,DAY 7,−2.08
same,AKR1B1 Raw Est Fold Change,DAY 7,−3.52
same,AKT3 Raw Est Fold Change,DAY 7,−5.29
same,ALCAM Raw Est Fold Change,DAY 7,−1.46
same,ALDH1A1 Raw Est Fold Change,DAY 7,1.54
same,AMPH Raw Est Fold Change,DAY 7,−21.01
same,APOL6 Raw Est Fold Change,DAY 7,1.36
same,ARHGDIB Raw Est Fold Change,DAY 7,−3.40
